ChEMBL document CHEMBL1268984, “N-Substituted acetamidines and 2-methylimidazole derivatives as selective inhibitors of neuronal nitric oxide synthase” (Bioorg Med Chem Lett, 2010)

Experiments:
[1] = Selectivity ratio, ratio of IC50 for bovine eNOS to IC50 for rat brain nNOS
[2] = target: T1, Nitric oxide synthase, inducible (Mus musculus, UniProt P29477); test: Inhibition of mouse macrophage iNOS assessed as nitric oxide mediated oxidation of oxyhemoglobin to methemoglobin
T1 sequence (P29477 whole entry): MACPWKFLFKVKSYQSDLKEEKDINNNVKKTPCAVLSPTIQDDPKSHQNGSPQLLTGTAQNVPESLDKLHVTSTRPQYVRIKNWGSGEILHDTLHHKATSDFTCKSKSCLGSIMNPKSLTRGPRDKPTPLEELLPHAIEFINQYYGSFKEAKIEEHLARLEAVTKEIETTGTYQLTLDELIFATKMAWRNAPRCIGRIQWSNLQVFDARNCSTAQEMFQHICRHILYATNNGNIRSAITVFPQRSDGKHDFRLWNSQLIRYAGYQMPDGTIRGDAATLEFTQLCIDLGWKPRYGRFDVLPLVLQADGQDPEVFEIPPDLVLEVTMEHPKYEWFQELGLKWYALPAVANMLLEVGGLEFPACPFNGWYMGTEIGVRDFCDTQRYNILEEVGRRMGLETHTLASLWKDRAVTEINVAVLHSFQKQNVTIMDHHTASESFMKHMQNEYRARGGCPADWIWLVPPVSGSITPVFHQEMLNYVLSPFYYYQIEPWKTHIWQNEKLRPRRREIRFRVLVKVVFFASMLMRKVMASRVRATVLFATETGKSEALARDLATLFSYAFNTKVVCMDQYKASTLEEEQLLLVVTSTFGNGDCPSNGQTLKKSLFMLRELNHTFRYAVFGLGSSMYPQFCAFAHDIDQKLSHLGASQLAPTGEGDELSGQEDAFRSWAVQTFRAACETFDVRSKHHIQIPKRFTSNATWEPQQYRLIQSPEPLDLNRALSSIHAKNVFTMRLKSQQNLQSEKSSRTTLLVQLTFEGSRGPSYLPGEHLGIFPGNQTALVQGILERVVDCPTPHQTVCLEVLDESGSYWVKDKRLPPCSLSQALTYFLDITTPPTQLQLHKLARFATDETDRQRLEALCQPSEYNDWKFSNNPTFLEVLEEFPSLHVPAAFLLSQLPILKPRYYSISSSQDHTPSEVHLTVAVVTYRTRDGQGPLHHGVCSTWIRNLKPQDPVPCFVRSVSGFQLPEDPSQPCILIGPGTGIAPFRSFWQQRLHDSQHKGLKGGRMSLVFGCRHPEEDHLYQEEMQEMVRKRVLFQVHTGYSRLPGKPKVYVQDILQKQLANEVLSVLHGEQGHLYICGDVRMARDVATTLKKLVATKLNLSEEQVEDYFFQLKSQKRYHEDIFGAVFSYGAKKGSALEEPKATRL

Nitric oxide synthase 1 = Nitric oxide synthase 1 (Rattus norvegicus, UniProt P29476); test: Inhibition of rat brain nNOS assessed as nitric oxide mediated oxidation of oxyhemoglobin to methemoglobin
Nitric oxide synthase 3 = target: T2, Nitric oxide synthase 3 (Bos taurus, UniProt P29473); test: Inhibition of bovine eNOS assessed as nitric oxide mediated oxidation of oxyhemoglobin to methemoglobin
T2 sequence (P29473 whole entry): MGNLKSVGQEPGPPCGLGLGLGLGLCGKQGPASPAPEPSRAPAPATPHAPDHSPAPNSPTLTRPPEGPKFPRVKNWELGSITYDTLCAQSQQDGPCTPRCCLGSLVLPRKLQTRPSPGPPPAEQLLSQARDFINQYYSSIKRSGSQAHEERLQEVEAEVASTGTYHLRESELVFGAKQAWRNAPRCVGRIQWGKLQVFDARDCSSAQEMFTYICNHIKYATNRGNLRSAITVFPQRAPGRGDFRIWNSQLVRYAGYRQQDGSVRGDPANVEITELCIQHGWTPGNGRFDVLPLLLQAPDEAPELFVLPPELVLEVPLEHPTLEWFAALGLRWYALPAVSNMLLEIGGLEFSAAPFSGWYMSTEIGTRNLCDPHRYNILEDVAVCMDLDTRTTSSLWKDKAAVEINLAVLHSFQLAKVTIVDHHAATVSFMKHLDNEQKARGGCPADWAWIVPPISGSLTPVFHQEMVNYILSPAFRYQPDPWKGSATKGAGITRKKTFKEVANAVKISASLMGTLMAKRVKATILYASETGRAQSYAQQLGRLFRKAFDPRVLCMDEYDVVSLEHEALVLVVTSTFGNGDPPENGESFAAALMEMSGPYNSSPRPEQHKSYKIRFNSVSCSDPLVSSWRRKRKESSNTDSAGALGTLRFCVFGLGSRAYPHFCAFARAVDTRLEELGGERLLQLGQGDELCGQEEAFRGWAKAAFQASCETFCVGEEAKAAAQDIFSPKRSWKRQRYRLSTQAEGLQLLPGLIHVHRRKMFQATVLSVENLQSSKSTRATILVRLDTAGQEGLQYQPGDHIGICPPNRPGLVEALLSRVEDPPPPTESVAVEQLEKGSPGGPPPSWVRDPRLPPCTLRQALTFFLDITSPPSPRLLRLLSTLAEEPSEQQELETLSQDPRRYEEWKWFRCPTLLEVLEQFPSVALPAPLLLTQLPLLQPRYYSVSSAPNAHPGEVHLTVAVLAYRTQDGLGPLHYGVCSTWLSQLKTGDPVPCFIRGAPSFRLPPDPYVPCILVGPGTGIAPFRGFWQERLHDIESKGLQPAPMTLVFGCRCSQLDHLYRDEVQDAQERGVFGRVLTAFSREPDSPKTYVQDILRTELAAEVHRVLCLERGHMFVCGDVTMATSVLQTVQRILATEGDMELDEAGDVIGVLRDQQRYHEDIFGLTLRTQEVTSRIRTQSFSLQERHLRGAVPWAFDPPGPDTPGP

[3] = Selectivity ratio, ratio of IC50 for mouse macrophage iNOS to IC50 for rat brain nNOS

Nitric oxide synthase 1, sequence (P29476 whole entry): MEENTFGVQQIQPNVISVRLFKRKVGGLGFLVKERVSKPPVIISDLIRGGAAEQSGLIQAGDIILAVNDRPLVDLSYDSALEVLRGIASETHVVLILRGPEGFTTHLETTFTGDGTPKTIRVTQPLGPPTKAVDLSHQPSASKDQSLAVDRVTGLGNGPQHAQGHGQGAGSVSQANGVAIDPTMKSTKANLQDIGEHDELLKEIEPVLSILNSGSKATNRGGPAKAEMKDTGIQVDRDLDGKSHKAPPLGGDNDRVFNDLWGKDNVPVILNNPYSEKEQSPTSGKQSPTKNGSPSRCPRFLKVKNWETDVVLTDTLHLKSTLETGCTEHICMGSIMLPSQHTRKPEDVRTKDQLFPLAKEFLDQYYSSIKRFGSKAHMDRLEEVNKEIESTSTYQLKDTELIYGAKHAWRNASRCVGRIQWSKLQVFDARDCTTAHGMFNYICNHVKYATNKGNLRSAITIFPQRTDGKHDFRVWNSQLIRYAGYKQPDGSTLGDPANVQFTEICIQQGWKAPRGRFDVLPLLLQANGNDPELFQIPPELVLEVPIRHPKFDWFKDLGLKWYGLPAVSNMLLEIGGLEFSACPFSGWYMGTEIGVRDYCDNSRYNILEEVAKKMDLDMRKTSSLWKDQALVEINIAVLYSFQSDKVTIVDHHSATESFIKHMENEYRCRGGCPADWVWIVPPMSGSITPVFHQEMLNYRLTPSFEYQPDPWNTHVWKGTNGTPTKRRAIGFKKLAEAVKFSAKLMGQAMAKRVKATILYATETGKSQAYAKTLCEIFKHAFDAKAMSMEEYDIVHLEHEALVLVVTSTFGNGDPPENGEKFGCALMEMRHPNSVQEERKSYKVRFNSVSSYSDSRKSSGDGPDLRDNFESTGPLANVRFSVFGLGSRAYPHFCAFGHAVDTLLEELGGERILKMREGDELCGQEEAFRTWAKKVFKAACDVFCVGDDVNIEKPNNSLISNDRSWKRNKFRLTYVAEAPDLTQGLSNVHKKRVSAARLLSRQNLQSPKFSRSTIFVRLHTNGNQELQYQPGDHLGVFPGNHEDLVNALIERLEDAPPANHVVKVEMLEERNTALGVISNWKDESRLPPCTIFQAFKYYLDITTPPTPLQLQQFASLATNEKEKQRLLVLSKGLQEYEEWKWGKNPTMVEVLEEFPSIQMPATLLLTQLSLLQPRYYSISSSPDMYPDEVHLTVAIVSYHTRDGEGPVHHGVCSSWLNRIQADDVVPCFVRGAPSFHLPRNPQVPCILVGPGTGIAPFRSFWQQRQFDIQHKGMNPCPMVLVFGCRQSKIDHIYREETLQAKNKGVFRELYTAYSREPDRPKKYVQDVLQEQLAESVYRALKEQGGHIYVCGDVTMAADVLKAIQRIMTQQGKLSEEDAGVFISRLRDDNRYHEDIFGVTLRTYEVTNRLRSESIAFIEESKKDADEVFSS

SMILES	Ratio IC50 [1]	IC50 [2]	IC50 (Nitric oxide synthase 1)	IC50 (Nitric oxide synthase 3)	Ratio IC50 [3]
CC(=N)N[C@@H](C)c1ccccc1	2	0.45 µM	150 µM	300 µM	0.003
CC(=N)NC(c1ccccc1)c1ccccc1	1170	30 µM	0.3 µM	350 µM	100
CC(=N)NC(c1ccccc1)C(C)C (racemic)	500	10 µM	0.2 µM	100 µM	50
CC(=N)NCc1ccc2c(c1)OCO2	1	800 µM	400 µM	400 µM	2
COc1cccc(CNC(C)=N)c1	10	50 µM	10 µM	100 µM	5
CCC(NC(C)=N)c1ccccc1 (racemic)	0.9	0.25 µM	90 µM	80 µM	0.003
Cc1nccn1Cc1ccncc1	20	12 µM	5 µM	100 µM	2.4
Cc1nccn1C(C)c1ccccc1 (racemic) [EFETOZOLE]	16	100 µM	5 µM	80 µM	20
CC(=N)NCc1ccccc1	2.3	0.2 µM	150 µM	350 µM	0.013
Cc1nccn1Cc1ccccc1	18	50 µM	5 µM	90 µM	10
